Measurements reported in patent EP3876933B1, “NEUTROPHIL INFLAMMATION INHIBITOR AND USES THEREOF” (Chang Gung University of Science and Technology, priority 2018, dated 2020).

Tests used:
human neutrophils [1] = assay: Superoxide anion (O2˙-) generation in fMLF/CB-activated human neutrophils (SOD-inhibitable ferricytochrome c reduction); type: cell-based; conditions: FMLP/CB-induced human neutrophils, mean ± S.E.M. (n = 3-5); for IC50 / inhibition at 10 µM: Neutrophil; for IC50: read-out: Superoxide Anion IC50
Description: (§1) Human neutrophils were obtained in lipopolysaccharide-free conditions by means of dextran sedimentation and Ficoll centrifugation.
O2˙^- production was determined based on the SOD-inhibitable reduction of ferricytochrome c. Briefly, neutrophils (6 × 10^5/mL) were treated with a candidate compound at 37 °C at various concentrations (0.001 to 10 µM) for 5 min after being supplementing with 0.5 mg/mL ferricytochrome c and 1 mM Ca^2+. Cells were then activated with fMLF (0.1 µM) for 10 min in the pre-process of cytochalasin B (CB, 1 µg/mL) for 3 min. Changes in absorbance with the reduction of ferricytochrome c at 550 nm were continuously monitored in a double-beam, six-cell positioner spectrophotometer with constant stirring (Hitachi U-3010, Tokyo, Japan). Calculations were based on the differences in the reactions with and without SOD (100 U ml^-1) divided by the extinction coefficient for the reduction of ferricytochrome c (ε = 21.1 mM^-1/10 mm).

human neutrophils [2] = assay: Elastase release in fMLF/CB-activated human neutrophils (Methoxysuccinyl-Ala-Ala-Pro-Val-p-nitroanilide substrate); type: cell-based; conditions: Neutrophil, FMLP/CB-induced human neutrophils, mean ± S.E.M. (n = 3-5); for IC50: read-out: Elastase Release IC50; for inhibition at 10 µM: at 10 µM concentration
Description: as §1
Methoxysuccinyl-Ala-Ala-Pro-Val-p-nitroanilide was employed as the elastase substrate for the determination of elastase release. Briefly, after supplementation with Methoxysuccinyl-Ala-Ala-Pro-Val-p-nitroanilide (100 µM), neutrophils (6 × 10^5/mL) were equilibrated at 37 °C for 2 min and incubated with a candidate compound at various concentrations for 5 min. Cells were then activated with fMLF (0.1 µM) for 10 min in the pre-process of CB (0.5 µg/mL) for 3 min, and changes in absorbance at 405 nm were continuously monitored to evaluate elastase release. Results are expressed as the percentage of elastase release in the drug-free control group, DMSO.

Cn1nc(N)c2c(Nc3ccccc3)nc3ccccc3c21 [Compound 3, 4-Anilino-l-methyl-1H-pyrazolo[4,3-c]quinolin-3-amine]
IC50 (human neutrophils [1]): 2.39 ± 0.63 µM
inhibition at 10 µM (human neutrophils [1]; at 10 µM concentration): 93.9 ± 6.32%
IC50 (human neutrophils [2]): 4.09 ± 1.02 µM
inhibition at 10 µM (human neutrophils [2]): 80.5 ± 2.57%

Cn1nc(N)c2c(Nc3ccc(F)cc3)nc3ccccc3c21 [Compound 4, 4-(4-Fluoroanilino)-1-methyl-1H-pyrazolo[4,3-c]quinolin-3-amine]
IC50 (human neutrophils [1]): 1.44 ± 0.22 µM
inhibition at 10 µM (human neutrophils [1]; at 10 µM concentration): 91.2 ± 4.43%
IC50 (human neutrophils [2]): 5.5 ± 1.5 µM
inhibition at 10 µM (human neutrophils [2]): 68 ± 6.8%

COc1ccccc1Nc1nc2ccccc2c2c1c(N)nn2C [Compound 5, 4-(2-Methoxyanilino)-1-methyl-1H-pyrazolo[4,3-c]quinolin-3-amine]
IC50 (human neutrophils [1]): 1.37 ± 0.08 µM
inhibition at 10 µM (human neutrophils [1]; at 10 µM concentration): 90.1 ± 3.38%
IC50 (human neutrophils [2]): 4.65 ± 2.57 µM
inhibition at 10 µM (human neutrophils [2]): 66 ± 6.51%

COc1cccc(Nc2nc3ccccc3c3c2c(N)nn3C)c1 [Compound 6, 4-(3-Methoxyanilino)-1-methyl-1H-pyrazolo[4,3-c]quinolin-3-amine]
IC50 (human neutrophils [1]): > 10 µM
inhibition at 10 µM (human neutrophils [1]; at 10 µM concentration): 27.5 ± 5.47%
IC50 (human neutrophils [2]): > 10 µM
inhibition at 10 µM (human neutrophils [2]): 33.4 ± 6.04%

COc1ccc(Nc2nc3ccccc3c3c2c(N)nn3C)cc1 [Compound 7, 4-(4-Methoxyanilino)-1-methyl-1H-pyrazolo[4,3-c]quinolin-3-amine]
IC50 (human neutrophils [1]): 0.51 ± 0.17 µM
inhibition at 10 µM (human neutrophils [1]; at 10 µM concentration): 99.3 ± 1.51%
IC50 (human neutrophils [2]): 3.77 ± 0.71 µM
inhibition at 10 µM (human neutrophils [2]): 96.7 ± 6.56%

COc1cc(Nc2nc3ccccc3c3c2c(N)nn3C)cc(OC)c1OC [Compound 8, 4-(3,4,5-Trimethoxyanilino)-1-methyl-1H-pyrazolo[4,3-c]quinolin-3-amine]
IC50 (human neutrophils [1]): 0.8 ± 0.09 µM
inhibition at 10 µM (human neutrophils [1]; at 10 µM concentration): 98.2 ± 2.41%
IC50 (human neutrophils [2]): 3.25 ± 0.08 µM
inhibition at 10 µM (human neutrophils [2]): 89.8 ± 6.51%

CSc1ccc(Nc2nc3ccccc3c3c2c(N)nn3C)cc1 [Compound 9, 1-Methyl-4-(4-methylthioanilino)-1H-pyrazolo[4,3-c]quinolin-3-amine]
IC50 (human neutrophils [1]): > 10 µM
inhibition at 10 µM (human neutrophils [1]; at 10 µM concentration): 47.7 ± 3.32%
IC50 (human neutrophils [2]): > 10 µM
inhibition at 10 µM (human neutrophils [2]): 20.8 ± 3.75%

CC(=O)c1ccc(Nc2nc3ccccc3c3c2c(N)nn3C)cc1 [Compound 10, 4-(4-Acetoylanilino)-1-methyl-1H-pyrazolo[4,3-c]quinolin-3-amine]
IC50 (human neutrophils [1]): 1.58 µM
inhibition at 10 µM (human neutrophils [1]; at 10 µM concentration): 85.1 ± 1.66%
IC50 (human neutrophils [2]): 4.63 ± 1.1 µM
inhibition at 10 µM (human neutrophils [2]): 57.2%

Cn1nc(N)c2c(Nc3ccccc3O)nc3ccccc3c21 [Compound 11, 4-(2-Hydroxyanilino)-1-methyl-1H-pyrazolo[4,3-c]quinolin-3-amine]
IC50 (human neutrophils [1]): 0.73 ± 0.23 µM
inhibition at 10 µM (human neutrophils [1]; at 10 µM concentration): 93.5 ± 1.75%
IC50 (human neutrophils [2]): 2.24 ± 0.91 µM
inhibition at 10 µM (human neutrophils [2]): 101 ± 4.5%

Cn1nc(N)c2c(Nc3cccc(O)c3)nc3ccccc3c21 [Compound 12, 4-(3-Hydroxyanilino)-1-methyl-1H-pyrazolo[4,3-c]quinolin-3-amine]
IC50 (human neutrophils [1]): 1.89 ± 0.69 µM
inhibition at 10 µM (human neutrophils [1]; at 10 µM concentration): 93.2 ± 3.66%
IC50 (human neutrophils [2]): 4.62 ± 1.74 µM
inhibition at 10 µM (human neutrophils [2]): 94.4 ± 8.34%

Cn1nc(N)c2c(Nc3ccc(C(F)(F)F)cc3)nc3ccccc3c21 [Compound 14, 4-(4-Trifluoromethylanilino)-1-methyl-1H-pyrazolo[4,3-c]quinolin-3-amine]
IC50 (human neutrophils [1]): 4.56 ± 0.83 µM
inhibition at 10 µM (human neutrophils [1]; at 10 µM concentration): 63.1 ± 2.51%
IC50 (human neutrophils [2]): > 10 µM
inhibition at 10 µM (human neutrophils [2]): 37.6 ± 6.22%

Cn1nc(N)c2c(Nc3ccc(C(=O)O)cc3)nc3ccccc3c21 [Compound 15, 4-[(3-Amino-1-methyl-1H-pyrazolo[4,3-c]quinolin-4-yl)amino]benzoic acid]
IC50 (human neutrophils [1]): 1.83 µM
inhibition at 10 µM (human neutrophils [1]; at 10 µM concentration): 82.9 ± 2.86%
IC50 (human neutrophils [2]): 3.68 ± 0.42 µM
inhibition at 10 µM (human neutrophils [2]): 79.4 ± 1.91%

Cn1nc(N)c2c(Nc3ccccc3S)nc3ccccc3c21 [Compound 16, 2-[(3-amino-1-methyl-1H-pyrazolo[4,3-c]quinolin-4-yl)amino]benzenethiol]
IC50 (human neutrophils [1]): > 10 µM
inhibition at 10 µM (human neutrophils [1]; at 10 µM concentration): 4.05 ± 2.95%
IC50 (human neutrophils [2]): > 10 µM
inhibition at 10 µM (human neutrophils [2]): -3.34 ± 1.78%

Cn1nc(N)c2c(Nc3ccc(Cl)cc3)nc3ccccc3c21 [Compound 17, 4-(4-Chloroanilino)-1-methyl-1H-pyrazolo[4,3-c]quinolin-3-amine]
IC50 (human neutrophils [1]): 3.49 ± 1.25 µM
inhibition at 10 µM (human neutrophils [1]; at 10 µM concentration): 82.8 ± 5.36%
IC50 (human neutrophils [2]): 5.28 ± 0.66 µM
inhibition at 10 µM (human neutrophils [2]): 75.8 ± 6.64%

Cc1ccc(Nc2nc3ccccc3c3c2c(N)nn3C)cc1 [Compound 18, 4-(4-Methylanilino)-1-methyl-1H-pyrazolo[4,3-c]quinolin-3-amine]
IC50 (human neutrophils [1]): 5.21 ± 1.9 µM
inhibition at 10 µM (human neutrophils [1]; at 10 µM concentration): 69.7 ± 7.05%
IC50 (human neutrophils [2]): > 10 µM
inhibition at 10 µM (human neutrophils [2]): 39.7 ± 3.83%

Nc1noc2c1c(Nc1ccccc1)nc1ccccc12 [Compound 19, 4-Anilinoisoxazolo[4,5-c]quinolin-3-amine]
IC50 (human neutrophils [1]): > 10 µM
inhibition at 10 µM (human neutrophils [1]; at 10 µM concentration): 43.7 ± 6.43%
IC50 (human neutrophils [2]): > 10 µM
inhibition at 10 µM (human neutrophils [2]): 5.81 ± 5.22%

Nc1noc2c1c(Nc1ccc(F)cc1)nc1ccccc12 [Compound 20, 4-(4-Fluoroanilino)isoxazolo[4,5-c]quinolin-3-amine]
IC50 (human neutrophils [1]): 6.16 ± 1.18 µM
inhibition at 10 µM (human neutrophils [1]; at 10 µM concentration): 63.2 ± 7.76%
IC50 (human neutrophils [2]): > 10 µM
inhibition at 10 µM (human neutrophils [2]): 10.7 ± 4%

COc1ccccc1Nc1nc2ccccc2c2onc(N)c12 [Compound 21, 4-(2-Methoxyanilino)isoxazolo[4,5-c]quinolin-3-amine]
IC50 (human neutrophils [1]): > 10 µM
inhibition at 10 µM (human neutrophils [1]; at 10 µM concentration): 32.7 ± 4.92%
IC50 (human neutrophils [2]): > 10 µM
inhibition at 10 µM (human neutrophils [2]): -8.32 ± 2.23%

COc1cccc(Nc2nc3ccccc3c3onc(N)c23)c1 [Compound 22, 4-(3-Methoxyanilino)isoxazolo[4,5-c]quinolin-3-amine]
IC50 (human neutrophils [1]): 6.53 ± 0.9 µM
inhibition at 10 µM (human neutrophils [1]; at 10 µM concentration): 69.2 ± 3.14%
IC50 (human neutrophils [2]): > 10 µM
inhibition at 10 µM (human neutrophils [2]): -3.61 ± 0.98%

COc1ccc(Nc2nc3ccccc3c3onc(N)c23)cc1 [Compound 23, 4-(4-Methoxyanilino)isoxazolo[4,5-c]quinolin-3-amine]
IC50 (human neutrophils [1]): 8.59 ± 0.29 µM
inhibition at 10 µM (human neutrophils [1]; at 10 µM concentration): 59.1 ± 2.03%
IC50 (human neutrophils [2]): > 10 µM
inhibition at 10 µM (human neutrophils [2]): -9.67 ± 3.44%

COc1cc(Nc2nc3ccccc3c3onc(N)c23)cc(OC)c1OC [Compound 24, 4-(3,4,5-Trimethoxyanilino)isoxazolo[4,5-c]quinolin-3-amine]
IC50 (human neutrophils [1]): > 10 µM
inhibition at 10 µM (human neutrophils [1]; at 10 µM concentration): 17.1 ± 3.77%
IC50 (human neutrophils [2]): > 10 µM
inhibition at 10 µM (human neutrophils [2]): -10.6 ± 3.81%

CSc1ccc(Nc2nc3ccccc3c3onc(N)c23)cc1 [Compound 25, 4-(4-Methylthioanilino)isoxazolo[4,5-c]quinolin-3-amine]
Superoxide Anion Inhibition % (human neutrophils [1]; at 10 µM concentration): enhanced
IC50 (human neutrophils [2]): > 10 µM
inhibition at 10 µM (human neutrophils [2]): 18.1 ± 3.97%

CC(=O)c1cccc(Nc2nc3ccccc3c3onc(N)c23)c1 [Compound 26, 4-(3-Acetoylanilino)isoxazolo[4,5-c]quinolin-3-amine]
IC50 (human neutrophils [1]): 2.88 ± 0.27 µM
inhibition at 10 µM (human neutrophils [1]; at 10 µM concentration): 76.2%
IC50 (human neutrophils [2]): > 10 µM
inhibition at 10 µM (human neutrophils [2]): -4.55 ± 5.83%

CC(=O)c1ccc(Nc2nc3ccccc3c3onc(N)c23)cc1 [Compound 27, 4-(4-Acetoylanilino)isoxazolo[4,5-c]quinolin-3-amine]
IC50 (human neutrophils [1]): > 10 µM
inhibition at 10 µM (human neutrophils [1]; at 10 µM concentration): 37.4 ± 5.43%
IC50 (human neutrophils [2]): > 10 µM
inhibition at 10 µM (human neutrophils [2]): -9.53 ± 5.26%

Nc1noc2c1c(Nc1ccccc1O)nc1ccccc12 [Compound 28, 4-(2-Hydroxyanilino)isoxazolo[4,5-c]quinolin-3-amine]
IC50 (human neutrophils [1]): 4.54 ± 1.18 µM
inhibition at 10 µM (human neutrophils [1]; at 10 µM concentration): 91 ± 1.69%
IC50 (human neutrophils [2]): 5.77 ± 1.14 µM
inhibition at 10 µM (human neutrophils [2]): 77.6 ± 4.52%

Nc1noc2c1c(Nc1ccc(O)cc1)nc1ccccc12 [Compound 29, 4-(4-Hydroxyanilino)isoxazolo[4,5-c]quinolin-3-amine]
IC50 (human neutrophils [1]): 0.65 ± 0.2 µM
inhibition at 10 µM (human neutrophils [1]; at 10 µM concentration): 91.1 ± 0.38%
IC50 (human neutrophils [2]): > 10 µM
inhibition at 10 µM (human neutrophils [2]): 29.9 ± 6.66%
